Data taken from publication PMC5390315 (Scientific Reports, 2017).
Read-outs that look alike come from different tables or passages of the source.

Legend:
HeLa = assay: Antiproliferative MTT assay, HeLa; assay type: cell-based, human; details: 72 h, mean ± SE
Protocol: (§1) Human T-cell leukemia (Jurkat) and human B-cell leukemia (SEM and RS4;11) cells were grown in RPMI-1640 medium (Gibco, Milano, Italy). Breast adenocarcinoma (MCF-7), human cervix carcinoma (HeLa), human lung adenocarcinoma (A549) and human colon adenocarcinoma (HT-29) cells were grown in DMEM medium (Gibco, Milano, Italy), all supplemented with 115 units/mL penicillin G (Gibco, Milano, Italy), 115 μg/mL streptomycin (Invitrogen, Milano, Italy), and 10% fetal bovine serum (FBS; Invitrogen, Milano, Italy). Stock solutions (10 mM) of the different compounds were obtained by dissolving them in DMSO. Individual wells of a 96-well tissue culture microtiter plate were inoculated with 100 μL of complete medium containing 8 × 10^3 cells. The plates were incubated at 37 °C in a humidified 5% CO2 incubator for 18 h prior to the experiments. After medium removal, 100 μL of fresh medium containing the test compound at different concentrations was added to each well in triplicate and incubated at 37 °C for 72 h. The percentage of DMSO in the medium never exceeded 0.25%. This was also the maximum DMSO concentration in all cell-based assays described below.

A549 = assay: Antiproliferative MTT assay, A549; assay type: cell-based, human; details: mean ± SE
Protocol: as §1

HT-29 = assay: Antiproliferative MTT assay, HT-29; assay type: cell-based, human; details: mean ± SE
Protocol: as §1

MCF-7 = assay: Antiproliferative MTT assay, MCF-7; assay type: cell-based, human; details: mean ± SE
Protocol: as §1

Jurkat = assay: Antiproliferative MTT assay, Jurkat; assay type: cell-based, human; details: 72 h, mean ± SE
Protocol: as §1

RS 4;11 = assay: Antiproliferative MTT assay, RS 4;11; assay type: cell-based, human; details: mean ± SE
Protocol: as §1

SEM cells = assay: Antiproliferative MTT assay, SEM; assay type: cell-based, human; details: 72 h, mean ± SE
Protocol: as §1

bovine brain tubulin = assay: Inhibition of tubulin polymerization; assay type: biochemical; details: tubulin at 10 μM; read-out: Tubulin assembly IC50 ± S.D
Protocol: (§2) To evaluate the effect of the compounds on tubulin assembly in vitro[41], varying concentrations of compounds were preincubated with 10 μM bovine brain tubulin in 0.8 M monosodium glutamate (pH adjusted to 6.6 with HCl in a 2.0 M stock solution) at 30 °C and then cooled to 0 °C. After addition of 0.4 mM GTP, the mixtures were transferred to 0 °C cuvettes in a recording spectrophotometer and warmed to 30 °C. Tubulin assembly was followed turbidimetrically at 350 nm. […] The capacity of the test compounds to inhibit colchicine binding to tubulin was measured as described, except that the reaction mixtures contained 1 μM tubulin, 5 μM [^3H]colchicine and 1 or 5 μM test compound.

tubulin = assay: Inhibition of [3H]colchicine binding to tubulin; details: tubulin 1 μM, [3H]colchicine 5 μM
Protocol: as §2

[1] = system: panel of seven human tumor cell lines; assay: Antiproliferative activity, range over panel of seven human tumor cell lines; assay type: cell-based
Protocol: as §1

[2] = system: BL6-B16 murine melanoma cells; assay: Mouse allograft tumor model (BL6-B16 melanoma); assay type: in vivo
Excerpt: Animal experiments were approved by our local animal ethics committee (OPBA, Organismo Preposto al Benessere degli Animali, Università degli Studi di Brescia, Italy) and were executed in accordance with national guidelines and regulations. Procedures involving animals and their care conformed with institutional guidelines that comply with national and international laws and policies (EEC Council Directive 86/609, OJ L 358, 12 December 1987) and with “ARRIVE” guidelines (Animals in Research Reporting In Vivo Experiments). Six week old C57BL/6 mice (Charles River, Calco) were injected subcutaneously into the dorsolateral flank with 2.5x10^5 BL6-B16 murine melanoma cells in 200 μL of PBS. When tumors were palpable, animals were treated intraperitoneally every other day with different doses of test compounds dissolved in 50 μL of DMSO. Tumors were measured in two dimensions, and tumor volume was calculated according to the formula V = (D × d^2)/2, where D and d are the major and minor perpendicular tumor diameters, respectively.

[3] = system: panel of five cancer cell lines; parameters: method as in PMID 23117171; details: read-out: IC50 range (Figure 1); cited from earlier work

| Molecule | IC50 (HeLa; Homo sapiens, HeLa) [nM] | IC50 (A549; Homo sapiens, A549, 72 h) [nM] | IC50 (HT-29; Homo sapiens, HT-29, 72 h) [nM] | IC50 (MCF-7; Homo sapiens, MCF7, 72 h) [nM] | IC50 (Jurkat; Homo sapiens, Jurkat) [nM] | melting point [°C] | IC50 (HeLa) [nM] | IC50 (A549; 72 h) [nM] | IC50 (HT-29; 72 h) [nM] | IC50 (MCF-7; 72 h) [nM] | IC50 (Jurkat) [nM] | IC50 (RS 4;11; Homo sapiens, RS4-11, 72 h) [nM] | IC50 (SEM cells; Homo sapiens) [nM] | IC50 (RS 4;11; 72 h) [nM] | IC50 (SEM cells) [nM] | also measured |
| --- | --- | --- | --- | --- | --- | --- | --- | --- | --- | --- | --- | --- | --- | --- | --- | --- |
| COc1ccc(-c2oc(C)nc2-c2cc(OC)c(OC)c(OC)c2)cc1Cl [Compound 4h, 5-(3-Chloro-4-methoxyphenyl)-4-(3,4,5-trimethoxyphenyl)-2-methyloxazole] | 169 ± 75.5 | 138 ± 13.7 | 207 ± 93 | 144 ± 64.3 | 512 ± 92.7 | 150 to 152 | – | – | – | – | – | 47 ± 13.9 | 233 ± 34.6 | – | – | – |
| 5-(3,4,5-Trimethoxyphenyl)-4-(3-methoxyphenyl)-2-methyloxazole [Compound 4f] | – | – | – | – | – | – | > 10000 | > 10000 | > 10000 | > 10000 | 5230 ± 88.2 | – | – | 5330 ± 167 | 3630 ± 171 | – |
| COc1ccc(/C=C\c2cc(OC)c(OC)c(OC)c2)cc1OP(=O)(O)O [CA-4P, CA-4 disodium phosphate, reference compound] | – | – | – | – | – | – | – | – | – | – | – | – | – | – | – | reduction in tumor mass [2]: 28.0% |
| COc1cc(-c2nc(C)sc2-c2ccc(C)cc2)cc(OC)c1OC [Compound 3a] | – | – | – | – | – | – | – | – | – | – | – | – | – | – | – | IC50 [3]: 520 to 1900 nM |

Now from value to molecule, other results behind:

| IC50 (HeLa; Homo sapiens, HeLa) [nM] | IC50 (A549; Homo sapiens, A549, 72 h) [nM] | IC50 (HT-29; Homo sapiens, HT-29, 72 h) [nM] | IC50 (MCF-7; Homo sapiens, MCF7, 72 h) [nM] | IC50 (Jurkat; Homo sapiens, Jurkat) [nM] | melting point [°C] | IC50 (HeLa) [nM] | IC50 (A549; 72 h) [nM] | IC50 (HT-29; 72 h) [nM] | IC50 (MCF-7; 72 h) [nM] | IC50 (Jurkat) [nM] | Molecule | IC50 (RS 4;11; Homo sapiens, RS4-11, 72 h) [nM] | IC50 (SEM cells; Homo sapiens) [nM] | IC50 (RS 4;11; 72 h) [nM] | IC50 (SEM cells) [nM] | also measured |
| --- | --- | --- | --- | --- | --- | --- | --- | --- | --- | --- | --- | --- | --- | --- | --- | --- |
| 24 ± 10.5 | 243 ± 51.5 | 12.3 ± 5.9 | 83.8 ± 20.2 | 43.6 ± 12.3 | 108 to 110 | – | – | – | – | – | COc1ccc(-c2nc(C)oc2-c2cc(OC)c(OC)c(OC)c2)cc1 [Compound 5e, 5-(3,4,5-Trimethoxyphenyl)-4-(4-methoxyphenyl)-2-methyloxazole] | 17.3 ± 4.2 | 96.6 ± 22.5 | – | – | IC50 (bovine brain tubulin): 2600 ± 300 nM; Colchicine binding % inhibition ± S.D, 5 μM drug (tubulin): 54 ± 3% |
| > 10000 | > 10000 | > 10000 | > 10000 | 9000 ± 577 | 132 to 133 | – | – | – | – | – | COc1cc(-c2oc(C)nc2-c2ccc(F)cc2)cc(OC)c1OC [Compound 5b, 4-(4-Fluorophenyl)-5-(3,4,5-trimethoxyphenyl)-2-methyloxazole] | > 10000 | > 10000 | – | – | IC50 ([1]; Homo sapiens, read-out: IC50 values against all cell lines screened): > 9000 nM |
| – | – | – | – | – | – | 2820 ± 169 | 8780 ± 2310 | 1400 ± 384 | 2590 ± 447 | 5580 ± 888 | 5-(3,4,5-Trimethoxyphenyl)-4-(4-chlorophenyl)-2-methyloxazole [Compound 4c] | – | – | 840 ± 260 | 2210 ± 256 | – |
| 2.4 ± 0.6 | 0.65 ± 0.08 | 3.3 ± 1.1 | 2.5 ± 0.7 | 4.6 ± 1 | 127 to 129 | – | – | – | – | – | COc1ccc(-c2oc(C)nc2-c2cc(OC)c(OC)c(OC)c2)cc1F [Compound 4g, 5-(3-Fluoro-4-methoxyphenyl)-4-(3,4,5-trimethoxyphenyl)-2-methyloxazole] | 0.35 ± 0.15 | 3.9 ± 0.8 | – | – | IC50 (bovine brain tubulin): 1200 nM; Colchicine binding % inhibition ± S.D, 1 μM drug (tubulin; 1 μM drug): 51 ± 1%; Colchicine binding % inhibition ± S.D, 5 μM drug (tubulin): 78 ± 0.5%; IC50 ([1]; Homo sapiens, read-out: IC50 values, range over the cell line panel): 0.35 to 4.6 nM |
| – | – | – | – | – | – | > 10000 | > 10000 | > 10000 | > 10000 | > 10000 | 5-(3,4,5-Trimethoxyphenyl)-4-(4-fluorophenyl)-2-methyloxazole [Compound 4b] | – | – | > 10000 | 9550 ± 2050 | IC50 ([1]; read-out: IC50 values against all cell lines screened): > 9000 nM |
